Experimental data published in patent US20250205356A1, “POLYMER-DRUG CONJUGATES” (PRIMELINK BIOTHERAPEUTICS (SHENZHEN) CO., LTD, priority 2022, published 2025).

Legend:
[1] = system: Trop2 positive SKBR-3 cells; experiment: Antibody mediated internalization in Trop2 expressing tumor cells, FACS; format: cell-based; details: 100 nM
Protocol: The Trop2 positive cell line SKBR-3 cells (Breast cancer, ATCC No. HTB30) were used for the following internalization assay. The culture conditions are the same as in Example 21.
(§1) Cells were harvested with 0.25% Trysin/EDTA (T1320, Solarbio) and adjusted the cell concentration to 4×10^6 cells/mL with 1×PBS containing 1% FBS buffer. 100 μL cells per well were then plated in the 96-well cell culture plates and incubated with Trop2 antibodies Trop2-1, Trop2-2, Datopotamab, and Sacituzumab, as well as exemplary anti-Trop2 ADCs (ADC-4, ADC-5, ADC-6, ADC-7, ADC-8 and ADC-9) at final concentration 100 nM for seven time points (0, 0.5, 2, 4, 8, 16, and 24 hours). The mixtures were incubated at 4° C. in an atmosphere of 5% CO2 in air. At specific time points, cells were immediately washed twice and suspended in 100 μL cold wash buffer containing 2% paraformaldehyde for 30 mins. Cells were washed twice and then incubated with 1×PE anti-human IgG Fc Antibody (Cat. No. 366904, Biolegend) at 4° C. and 5% CO2 for another one hour. After the two-step washing by washing buffer, cells were re-suspended in 100 μL FACS buffer, CytoFlex Cytometry (Beckman Coulter) was used to detect the fluorescent signals of cells. The internalization ratio at several time points were calculated as the missing rate of MFI values at specific time point in that at 0 hours. Curves of internalization rate versus incubation time (hours) were plotted with the Graphpad Prism Software.

[2] = system: SKBR-3, NCI-N87, MCF-7, and MDA-MB-468 cells; experiment: In vitro cytotoxic assays of anti-Trop2 ADCs, statements on all test cell lines; format: cell-based; details: four Trop-2 expressing cell lines, FIG. 6
Protocol: Cytotoxicity of exemplary free linker-payloads (Compounds 2, 3 and 4), free Trop2 antibodies (Trop2-1, Trop2-2, Datopotamab, and Sacituzumab), exemplary anti-Trop2 ADCs (ADC-4, ADC-5, ADC-6, ADC-7, ADC-8 and ADC-9) and Trodelvy (an anti-Trop2 ADC approved by FDA) as positive control was evaluated on SKBR-3 cells (Breast cancer, ATCC No. HTB30), NCI-N87 cells (Gastric cancer, ATCC No. CRL-5822), MCF-7 cells (Breast cancer, ATCC No. HTB-22), and MDA-MB-468 cells (Breast cancer, ATCC No. HTB-132).
(§2) In brief, 5,000 cells/well were platted in white clear 96-well assay plates (Cat. No. 6005182, PerkinElmer) (excluding edge wells, which contained medium only) in 90 μL basic culture medium (McCoy's 5a medium for SKBR-3 cells, RPMI-1640 medium for NCI-N87 cells, EMEM medium for MCF-7 cells, and Leibovitz's L-15 medium for MDA-MB-468 cells) containing 10% FBS, I % Penicillin-Streptomycin Solution (BL505A, Biosharp Life Sciences), and 2 mM L-Glutamine (Cat. No. 25030081, ThermoFisher) and were grown at 37° C. in a humidified incubator at 5% CO2 atmosphere. […] After shaking the plates at 450 rpm for 3 mins followed by 10-min incubation without shaking, luminescence was measure on the Envision plate reader (Equipment No. 2104, PerkinElmer) with integration time of 250 ms per well. Curves of luminescence versus ADC concentration (μM) were fitted with GraphPad Prism Software.

SKBR-3 cells = experiment: In vitro cytotoxic assay of anti-Trop2 ADCs (CellTiter-Glo); format: cell-based; details: for Bottom (%): curve fit bottom; for Top (%): curve fit top
Protocol: as §2, with “After additional 72-hour incubation, plates were removed from incubator and equilibrated to room temperature. After approximately 30 mins, 50 μL of CellTiter-Glo® 2.0 Luminescent Cell Viability Reagent (Cat. No. G7573, Promega) were added to each well. After” for “After”

MCF-7 cells = experiment: as above; format: cell-based; details: for Bottom (%): curve fit bottom
Protocol: as §2, with “After additional 72-hour incubation, plates were removed from incubator and equilibrated to room temperature. After approximately 30 mins, 50 μL of CellTiter-Glo® 2.0 Luminescent Cell Viability Reagent (Cat. No. G7573, Promega) were added to each well. After” for “After”

NCI-N87 cell xenograft = experiment: In vivo therapeutic efficacy in NCI-N87 cell xenograft mouse model; parameters: species or system BALB/c female nude mice; details: 5 mg/kg, IV, BIW*3
Protocol: On day 0, NCI-N87 cells (1×10^7 with 1:1 Matrigel) suspended in 0.2 mL PBS supplement with 50% (v/v) matrigel were injected subcutaneously in the right upper flank of 6- to 8-wk-old BALB/c female nude mice (purchased from Beijing Vital River Laboratory Animal Technology Co., Ltd). On day 6, mice were randomized to 8 groups (n=6) when the average tumor volume was 178 mm^3. Treatments were initiated on the very same day (defined as PG-D0). Mice at Trodelvy group received 5.0 mg/kg (i.v., BIW) for 3 wk; mice at the ADC-5 treatment groups were injected with 1.0, 2.5, and 5.0 mg/kg (i.v., BIW) ADC-5 for 3 wk; mice at ADC-6 treatment groups were injected (i.v.) with 1.0 and 2.5 mg/kg ADC-6 weekly (QW) for three doses, or 5.0 mg/kg (single dose at day PG-D0). The tumor volumes and body weights were measured and recorded twice a week. On the termination day 28 (defined as PG-D28), tumor weight were dissected and measured. Tumor growth inhibition rate (%) was calculated as (TVCR−TVTR)/TVCR (%), where TVCR and TVTR are the relative tumor volumes of the vehicle control group and the experimental groups, respectively. Mice were euthanized and deemed to have succumbed to disease once tumors grew greater than 2,500 mm^3. GraphPad Prism 6.0 Software was used for statistical analysis with a one-way ANOVA.

MDA-MB-468 cells = experiment: In vitro cytotoxic assay of anti-Trop2 ADCs (CellTiter-Glo); format: cell-based
Protocol: as §2, with “After additional 72-hour incubation, plates were removed from incubator and equilibrated to room temperature. After approximately 30 mins, 50 μL of CellTiter-Glo® 2.0 Luminescent Cell Viability Reagent (Cat. No. G7573, Promega) were added to each well. After” for “After”

NCI-N87 cells = experiment: as above; format: cell-based
Protocol: as §2, with “After additional 72-hour incubation, plates were removed from incubator and equilibrated to room temperature. After approximately 30 mins, 50 μL of CellTiter-Glo® 2.0 Luminescent Cell Viability Reagent (Cat. No. G7573, Promega) were added to each well. After” for “After”

[3] = system: HER2 positive NCI-N87 cells; experiment: Antibody mediated internalization in HER2 expressing tumor cells, FACS; format: cell-based; details: 100 nM
Protocol: (§3) The culture conditions of two cell lines are the same as in Example 18.
as §1, with “(Tl 320,” for “(T1320,”, “100 μL cells per well were then plated in the 96-well cell culture plates and incubated with Trop2 antibodies Trop2-1, Trop2-2, Datopotamab, and Sacituzumab, as well as exemplary anti-Trop2 ADCs (ADC-4, ADC-5, ADC-6, ADC-7, ADC-8 and ADC-9) at final concentration 100 nM for seven time points (0, 0.5, 2, 4, 8, 16, and 24 hours).” left out, “median fluorescence intensity (MFI)” for “MFI”

[4] = system: HER2 positive SKBR-3 cells; experiment: as above; format: cell-based; details: 100 nM
Protocol: as §3
as §1, with “(Tl 320,” for “(T1320,”, “100 μL cells per well were then plated in the 96-well cell culture plates and incubated with Trop2 antibodies Trop2-1, Trop2-2, Datopotamab, and Sacituzumab, as well as exemplary anti-Trop2 ADCs (ADC-4, ADC-5, ADC-6, ADC-7, ADC-8 and ADC-9) at final concentration 100 nM for seven time points (0, 0.5, 2, 4, 8, 16, and 24 hours).” left out, “median fluorescence intensity (MFI)” for “MFI”

[5] = 72-hour incubation, read-out: ReIC50

For Sacituzumab: free Trop2 antibody, the “MFI value of internalization assay” value ([1]; 0 h) was 216386, the “MFI value of internalization assay” value ([1]; 0.5 h) was 205198.9 and the “MFI value of internalization assay” value ([1]; 2 h) was 90975.5. For the same molecule, the “MFI value of internalization assay” value ([1]; 4 h) was 75749.9, the “MFI value of internalization assay” value ([1]; 8 h) was 47695.7 and the “MFI value of internalization assay” value ([1]; 16 h) was 33528.1. The “MFI value of internalization assay” value ([1]; 24 h) was 32475, the “cytotoxic activity on the test cell lines” value [2] was “no target cell killing effect” and the “Bottom (%)” value (SKBR-3 cells) was 3.225%. The “Top (%)” value (SKBR-3 cells) was 9.741% and the “Bottom (%)” value (MCF-7 cells) was 0%.

Trodelvy was tested, and the “TGI (%) in days after administration, Day 3” value (NCI-N87 cell xenograft; Day 3) was 44.83%, the “TGI (%) in days after administration, Day 7” value (NCI-N87 cell xenograft; Day 7) was 44.43% and the “TGI (%) in days after administration, Day 10” value (NCI-N87 cell xenograft; Day 10) was 39.67%. The “TGI (%) in days after administration, Day 14” value (NCI-N87 cell xenograft; Day 14) was 42.59%, the “TGI (%) in days after administration, Day 17” value (NCI-N87 cell xenograft; Day 17) was 49.05% and the “TGI (%) in days after administration, Day 21” value (NCI-N87 cell xenograft; Day 21) was 55.07%. For the same molecule, the “TGI (%) in days after administration, Day 24” value (NCI-N87 cell xenograft; Day 24) was 55.32%, the “TGI (%) in days after administration, Day 28” value (NCI-N87 cell xenograft; Day 28) was 54.53% and the IC50 (SKBR-3 cells; [5]) was 0.846 nM. For the same molecule, the “Bottom (%)” value (SKBR-3 cells) was 0%, the “Top (%)” value (SKBR-3 cells) was 78.16% and the IC50 (MCF-7 cells; [5]) was 40.5 nM. For the same molecule, the “Bottom (%)” value (MCF-7 cells) was 0%, the “Top (%)” value (MCF-7 cells; curve fit top) was 35.94% and the IC50 (MDA-MB-468 cells; [5]) was 2.33 nM. For the same molecule, the “Bottom (%)” value (MDA-MB-468 cells; curve fit bottom) was 0%, the “Top (%)” value (MDA-MB-468 cells; curve fit top) was 79.13% and the IC50 (NCI-N87 cells; [5]) was 5.39 nM. For the same molecule, the “Bottom (%)” value (NCI-N87 cells; curve fit bottom) was 0% and the “Top (%)” value (NCI-N87 cells; curve fit top) was 76.68%.

With T-DM1 the “MFI value of internalization assay” value ([3]; 0 h) was 455385, the “MFI value of internalization assay” value ([3]; 0.5 h) was 452742.7 and the “MFI value of internalization assay” value ([3]; 2 h) was 475100.1. The “MFI value of internalization assay” value ([3]; 4 h) was 369328.5, the “MFI value of internalization assay” value ([3]; 8 h) was 345220.2 and the “MFI value of internalization assay” value ([3]; 16 h) was 362105.3. The “MFI value of internalization assay” value ([3]; 24 h) was 317532.7, the “MFI value of internalization assay” value ([4]; 0 h) was 89030.9 and the “MFI value of internalization assay” value ([4]; 0.5 h) was 54683.9. For the same molecule, the “MFI value of internalization assay” value ([4]; 2 h) was 51777.7, the “MFI value of internalization assay” value ([4]; 4 h) was 39019.6 and the “MFI value of internalization assay” value ([4]; 8 h) was 31583.1. The “MFI value of internalization assay” value ([4]; 16 h) was 29393.7 and the “MFI value of internalization assay” value ([4]; 24 h) was 20671.3.

B1: Datopotamab: native human IgG1 antibody of DS-1062 from Daiichi Sankyo, free antibody control (antibody, chains of the INN, looked up, V domains shown)
VH: QVQLVQSGAEVKKPGASVKVSCKASGYTFTTAGMQWVRQAPGQGLEWMGWINTHSGVPKYAEDFKGRVTISADTSTSTAYLQLSSLKSEDTAVYYCARSGFGSSYWYFDVWGQGTLVTVSS
VL: DIQMTQSPSSLSASVGDRVTITCKASQDVSTAVAWYQQKPGKAPKLLIYSASYRYTGVPSRFSGSGSGTDFTLTISSLQPEDFAVYYCQQHYITPLTFGQGTKLEIK
With B1 the “MFI value of internalization assay” value ([1]; 0 h) was 237324.4, the “MFI value of internalization assay” value ([1]; 0.5 h) was 112896.1 and the “MFI value of internalization assay” value ([1]; 2 h) was 41192.3. For the same molecule, the “MFI value of internalization assay” value ([1]; 4 h) was 33418.6, the “MFI value of internalization assay” value ([1]; 8 h) was 19928.3 and the “MFI value of internalization assay” value ([1]; 16 h) was 14134.9. For the same molecule, the “MFI value of internalization assay” value ([1]; 24 h) was 8497.3.
